Assays:
Aβ(1-42) aggregate = target: T1, Aβ(1-42) aggregate (Homo sapiens, UniProt P05067); assay: Binding inhibition experiment using Aβ(1-42) aggregate, Ki values (Example 2); details: compound numbers of Example 2; for Ki: radioactive ligand [^125I]CL-NMe2, mean ± standard error of 3 experiments (compound 4: 6 experiments), read-out: Ki values calculated by inhibition experiment; for binding affinity for the Aβ(1-42) aggregate: in words, derivatives with two substituents on Ring A
T1 construct: Amyloid β protein (Human, 1-42) [TFA form] was purchased from Peptide Institute, Inc; purchased Peptide Institute, Inc
T1 sequence (P05067 672-713 limits assumed): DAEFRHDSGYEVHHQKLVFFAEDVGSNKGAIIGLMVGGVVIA
Protocol: As a radioactive iodine-125 (^125I), Iodine-125 (3.7 GBq/mL) manufactured by MP Biomedicals, Inc. was used. Reverse phase HPLC was performed at a flow rate of 1.0 mL/min using a Cosmosil 5C18-AR-II column (4.6×150 mm) manufactured by Nacalai Tesque Inc. and ultrapure water:acetonitrile=3:7 as an elution solvent. ^1HNMR was measured using Varian Gemini 300 and tetramethylsilane as an internal standard substance. Mass spectrometry was performed using JEOL IMS-DX300. Preparative TLC was performed using 12 PLC plates 20×20-cm-Silica gel 60 F254, 2 mm manufactured by MERCK. Amyloid β protein (Human, 1-42) was purchased from Peptide Institute, Inc., and special grade reagents were used as other reagents.
Aβ(1-42) was dissolved in 10 mM phosphate buffer containing 1 mM EDTA (pH 7.4) at a concentration of 0.25 mg/mL, and the mixture was incubated at 37° C. for 42 h to prepare an Aβ(1-42) aggregate.
[…] of 10% EtOH solution, […] of a solution of [^125I]4-diethylamino-4′-iodochalcone ([^125I]CL-NMe2) in 10% ethanol, and […] of a sample solution at various concentrations (0 to 20 mM) were mixed, […] of an Aβ(1-42) aggregate solution was finally added, and the mixture was allowed to stand at room temperature for 3 h. Aβ(1-42) aggregate-bound compounds and nonbound compounds were separated with a Brandel M-24R cell harvester using a Whatman GF/B filter. Radioactivities remaining on the filter after filtration were measured with a γ-counter, and inhibition curves were created using Graph Pad Prism 4.0 to calculate inhibition constants (Ki values).

[1] = In-vivo radioactivity distribution experiment using normal mice (Example 2); details: normal mice, intravenous, Example 2 numbering
Protocol: Radioactive iodine labeling compounds were diluted with physiological saline containing 10% EtOH. To each of four or five 5-week-old male ddY mice (20 to 25 g) per group, […] of a labeled compound, [^125I]Compound 7, 10, 13, or 14 (0.2 to 0.4 mCi), was administered from the caudal vein. Animals were decapitated at 2, 10, 30, or 60 min, blood was collected, the major organs were isolated, and then weights and radioactivities thereof were measured.

[2] = In-vivo radioactivity distribution experiment in mice (Reference Example 1); details: intravenous, mean (standard deviation), Reference Example 1 numbering
Protocol: A radioactive iodine-labeled compound (Compound 7) was diluted with physiological saline containing 5 to 10% ethanol. Three to five 5-week-old male ddY mice (25 to 30 g) per group were decapitated at 2, 10, 30, or 60 min after intravenous administration of […] (0.5 to 1 μCi) of the labeled compound, blood was collected, organs were removed, and weights and radioactivities thereof were measured.

Nc1ccc(C=CC(=O)c2ccc(I)cc2)cc1 [CL-NH2, reference compound]
Ki (Aβ(1-42) aggregate): 105 ± 12 nM

CNc1ccc(C=CC(=O)c2ccc(I)cc2)cc1 [CL-NHMe, reference compound]
Ki (Aβ(1-42) aggregate): 6.3 ± 1.6 nM

CNc1ccc(C(=O)/C=C/c2ccc(I)cc2)cc1 [Compound 7 in Example 2, 4-iodo-4′-methylaminochalcone]
In-vivo radioactivity distribution: blood ([1]; 2 min): 1.76 (0.27) percent of the dose/g
In-vivo radioactivity distribution: brain ([1]; 2 min): 3.07 (0.57) percent of the dose/g
In-vivo radioactivity distribution: heart ([1]; 2 min): 5.00 (0.79) percent of the dose/g
In-vivo radioactivity distribution: intestine ([1]; 2 min): 2.52 (0.81) percent of the dose/g
In-vivo radioactivity distribution: kidney ([1]; 2 min): 6.20 (0.93) percent of the dose/g
In-vivo radioactivity distribution: liver ([1]; 2 min): 10.82 (2.61) percent of the dose/g
In-vivo radioactivity distribution: lung ([1]; 2 min): 11.10 (3.36) percent of the dose/g
In-vivo radioactivity distribution: pancreas ([1]; 2 min): 4.93 (1.01) percent of the dose/g
In-vivo radioactivity distribution: spleen ([1]; 2 min): 2.27 (0.48) percent of the dose/g
In-vivo radioactivity distribution: stomach ([1]; 2 min): 1.06 (0.67) percent of the dose
In-vivo radioactivity distribution: blood ([1]; 10 min): 1.43 (0.30) percent of the dose/g
In-vivo radioactivity distribution: brain ([1]; 10 min): 2.03 (0.41) percent of the dose/g
In-vivo radioactivity distribution: heart ([1]; 10 min): 1.98 (0.24) percent of the dose/g
In-vivo radioactivity distribution: intestine ([1]; 10 min): 7.78 (1.31) percent of the dose/g
In-vivo radioactivity distribution: kidney ([1]; 10 min): 4.56 (0.67) percent of the dose/g
In-vivo radioactivity distribution: liver ([1]; 10 min): 9.42 (1.92) percent of the dose/g
In-vivo radioactivity distribution: lung ([1]; 10 min): 4.94 (1.73) percent of the dose/g
In-vivo radioactivity distribution: pancreas ([1]; 10 min): 2.99 (1.70) percent of the dose/g
In-vivo radioactivity distribution: spleen ([1]; 10 min): 1.47 (0.27) percent of the dose/g
In-vivo radioactivity distribution: stomach ([1]; 10 min): 0.87 (0.38) percent of the dose
In-vivo radioactivity distribution: blood ([1]; 30 min): 1.15 (0.57) percent of the dose/g
In-vivo radioactivity distribution: brain ([1]; 30 min): 0.69 (0.09) percent of the dose/g
In-vivo radioactivity distribution: heart ([1]; 30 min): 0.98 (0.20) percent of the dose/g
In-vivo radioactivity distribution: intestine ([1]; 30 min): 17.52 (1.74) percent of the dose/g
In-vivo radioactivity distribution: kidney ([1]; 30 min): 3.92 (1.05) percent of the dose/g
In-vivo radioactivity distribution: liver ([1]; 30 min): 6.77 (1.21) percent of the dose/g
In-vivo radioactivity distribution: lung ([1]; 30 min): 2.22 (0.58) percent of the dose/g
In-vivo radioactivity distribution: pancreas ([1]; 30 min): 1.04 (0.35) percent of the dose/g
In-vivo radioactivity distribution: spleen ([1]; 30 min): 0.94 (0.48) percent of the dose/g
In-vivo radioactivity distribution: stomach ([1]; 30 min): 0.70(0.11) percent of the dose
In-vivo radioactivity distribution: blood ([1]; 60 min): 1.51 (0.26) percent of the dose/g
In-vivo radioactivity distribution: brain ([1]; 60 min): 0.40 (0.08) percent of the dose/g
In-vivo radioactivity distribution: heart ([1]; 60 min): 0.82 (0.14) percent of the dose/g
In-vivo radioactivity distribution: intestine ([1]; 60 min): 18.47 (2.31) percent of the dose/g
In-vivo radioactivity distribution: kidney ([1]; 60 min): 4.04 (1.10) percent of the dose/g
In-vivo radioactivity distribution: liver ([1]; 60 min): 6.01 (1.81) percent of the dose/g
In-vivo radioactivity distribution: lung ([1]; 60 min): 1.57 (0.23) percent of the dose/g
In-vivo radioactivity distribution: pancreas ([1]; 60 min): 0.78 (0.16) percent of the dose/g
In-vivo radioactivity distribution: spleen ([1]; 60 min): 0.71 (0.19) percent of the dose/g
In-vivo radioactivity distribution: stomach ([1]; 60 min): 1.14 (0.48) percent of the dose

COc1cc(/C=C/C(=O)c2cccc(I)c2)ccc1O [Compound 7 in Reference Example 1, (E)-3-(4-hydroxy-3-methoxyphenyl)-1-(3-iodophenyl)prop-2-en-1-one]
In-vivo distribution of radioactivity: Blood ([2]; 2 min): 4.90 (0.52) percents of the dose/g
In-vivo distribution of radioactivity: Brain ([2]; 2 min): 2.52 (0.20) percents of the dose/g
In-vivo distribution of radioactivity: Heart ([2]; 2 min): 5.58 (0.99) percents of the dose/g
In-vivo distribution of radioactivity: Intestines ([2]; 2 min): 2.50 (0.31) percents of the dose/g
In-vivo distribution of radioactivity: Kidneys ([2]; 2 min): 11.99 (3.60) percents of the dose/g
In-vivo distribution of radioactivity: Liver ([2]; 2 min): 15.71 (1.27) percents of the dose/g
In-vivo distribution of radioactivity: Spleen ([2]; 2 min): 2.57 (0.42) percents of the dose/g
In-vivo distribution of radioactivity: Blood ([2]; 10 min): 3.80 (0.91) percents of the dose/g
In-vivo distribution of radioactivity: Brain ([2]; 10 min): 1.28 (0.17) percents of the dose/g
In-vivo distribution of radioactivity: Heart ([2]; 10 min): 2.88 (1.02) percents of the dose/g
In-vivo distribution of radioactivity: Intestines ([2]; 10 min): 10.52 (1.82) percents of the dose/g
In-vivo distribution of radioactivity: Kidneys ([2]; 10 min): 9.16 (2.76) percents of the dose/g
In-vivo distribution of radioactivity: Liver ([2]; 10 min): 18.55 (2.68) percents of the dose/g
In-vivo distribution of radioactivity: Spleen ([2]; 10 min): 1.80 (0.30) percents of the dose/g
In-vivo distribution of radioactivity: Blood ([2]; 30 min): 1.84 (0.31) percents of the dose/g
In-vivo distribution of radioactivity: Brain ([2]; 30 min): 0.40 (0.11) percents of the dose/g
In-vivo distribution of radioactivity: Heart ([2]; 30 min): 1.44 (0.34) percents of the dose/g
In-vivo distribution of radioactivity: Intestines ([2]; 30 min): 20.60 (6.13) percents of the dose/g
In-vivo distribution of radioactivity: Kidneys ([2]; 30 min): 5.00 (2.27) percents of the dose/g
In-vivo distribution of radioactivity: Liver ([2]; 30 min): 7.67 (1.68) percents of the dose/g
In-vivo distribution of radioactivity: Spleen ([2]; 30 min): 1.03 (0.04) percents of the dose/g
In-vivo distribution of radioactivity: Blood ([2]; 60 min): 1.15 (0.44) percents of the dose/g
In-vivo distribution of radioactivity: Brain ([2]; 60 min): 0.35 (0.05) percents of the dose/g
In-vivo distribution of radioactivity: Heart ([2]; 60 min): 1.38 (0.34) percents of the dose/g
In-vivo distribution of radioactivity: Intestines ([2]; 60 min): 29.31 (3.26) percents of the dose/g
In-vivo distribution of radioactivity: Kidneys ([2]; 60 min): 4.31 (0.81) percents of the dose/g
In-vivo distribution of radioactivity: Liver ([2]; 60 min): 4.05 (0.61) percents of the dose/g
In-vivo distribution of radioactivity: Spleen ([2]; 60 min): 0.88 (0.15) percents of the dose/g

O=C(C=Cc1cccs1)c1ccc(I)cc1 [Compound 24 in Example 2, 1-(4-iodophenyl)-3-(2-thienyl)-prop-2-en-1-one]
Ki (Aβ(1-42) aggregate): 102 ± 15.9 nM

O=C(C=Cc1nccs1)c1ccc(I)cc1 [Compound 27 in Example 2, 1-(4-iodophenyl)-3-(thiazol-2-yl)-prop-2-en-1-one]
Ki (Aβ(1-42) aggregate): > 10000 nM

CN(C)c1ccc(C=CC(=O)c2ccc(I)cc2)o1 [Compound 31 in Example 2, 1-(4-iodophenyl)-3-(5-dimethylamino-2-furanyl)-prop-2-en-1-one]
Ki (Aβ(1-42) aggregate): 1130 ± 344 nM

CN(C)c1ccc(C=CC(=O)c2ccc(Br)o2)cc1 [Compound 32 in Example 2, 1-(5-bromo-2-furanyl)-3-(4-dimethylaminophenyl)-prop-2-en-1-one]
Ki (Aβ(1-42) aggregate): 126 ± 12.5 nM

CN(C)c1ccc(C=CC(=O)c2ccc(I)cc2)s1 [Compound 33 in Example 2, 3-(5-dimethylamino-2-thienyl)-1-(4-iodophenyl)-prop-2-en-1-one]
Ki (Aβ(1-42) aggregate): 113 ± 10.1 nM

CN(C)c1ccc(C=CC(=O)c2ccc(Br)o2)o1 [Compound 34 in Example 2, 1-(5-bromo-2-furyl)-3-(5-dimethylamino-2-furyl)-prop-2-en-1-one]
Ki (Aβ(1-42) aggregate): > 10000 nM

CN(C)c1ccc(C=CC(=O)c2ccc(Br)o2)s1 [Compound 35 in Example 2, 1-(5-bromo-2-furyl)-3-(5-dimethylamino-2-thienyl)-prop-2-en-1-one]
Ki (Aβ(1-42) aggregate): 2650 ± 221 nM

CN(C)c1ccc(C=CC(=O)c2ccc(I)s2)o1 [Compound 36 in Example 2, 3-(5-dimethylamino-2-furyl)-1-(5-iodo-2-thienyl)-prop-2-en-1-one]
Ki (Aβ(1-42) aggregate): 1610 ± 84.5 nM

CN(C)c1ccc(C=CC(=O)c2ccc(I)s2)s1 [Compound 37 in Example 2, 3-(S-dimethylamino-2-thienyl)-1-(5-iodo-2-thienyl)-prop-2-en-1-one]
Ki (Aβ(1-42) aggregate): 137 ± 3.4 nM

Nc1ccc(/C=C/C(=O)c2ccc(I)cc2)c(N)c1 [Compound 39 in Example 2, 2,4-diamino-4′-iodochalcone]
binding affinity for the Aβ(1-42) aggregate (Aβ(1-42) aggregate): no compound showed a high binding affinity

COc1cc(/C=C/C(=O)c2ccc(I)cc2)ccc1O [Compound 40 in Example 2, 4-hydroxy-4′-iodo-3-methoxychalcone]
binding affinity for the Aβ(1-42) aggregate (Aβ(1-42) aggregate): no compound showed a high binding affinity
Ki (Aβ(1-42) aggregate): 1160 ± 154 nM

COc1ccc(/C=C/C(=O)c2ccc(I)cc2)cc1O [Compound 41 in Example 2, 3-hydroxy-4′-iodo-4-methoxychalcone]
binding affinity for the Aβ(1-42) aggregate (Aβ(1-42) aggregate): no compound showed a high binding affinity
Ki (Aβ(1-42) aggregate): 157 ± 80.8 nM
